According to PubChem BioAssay (NCI):
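Each compound was tested at five concentrations against cells in 96-well plates for 48 hours. Here, GI50 denotes the concentration required for 50% inhibition of growth. TGI denotes the concentration required for complete inhibition of growth.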

Key:
Assay in all cases: DTP human tumour cell line panel, 48 h
RXF 393 renal = test system: RXF 393 renal
M19-MEL melanoma = test system: M19-MEL melanoma
UO-31 renal = test system: UO-31 renal
HCT-15 colon = test system: HCT-15 colon
XF 498 CNS = test system: XF 498 CNS
HOP-18 NSCLC = test system: HOP-18 NSCLC
SNB-78 CNS = test system: SNB-78 CNS
SF-295 CNS = test system: SF-295 CNS
KM12 colon = test system: KM12 colon
NCI-H226 lung = test system: NCI-H226 lung
NCI-H460 lung = test system: NCI-H460 lung
DLD-1 colon = test system: DLD-1 colon
KM20L2 colon = test system: KM20L2 colon
DMS 273 small cell lung = test system: DMS 273 small cell lung
T-47D breast = test system: T-47D breast

| SMILES | TGI (RXF 393 renal) | TGI (M19-MEL melanoma) | TGI (UO-31 renal) | TGI (HCT-15 colon) | TGI (XF 498 CNS) | TGI (HOP-18 NSCLC) | TGI (SNB-78 CNS) | TGI (SF-295 CNS) | TGI (KM12 colon) | TGI (NCI-H226 lung) | TGI (NCI-H460 lung) | TGI (DLD-1 colon) | TGI (KM20L2 colon) | TGI (DMS 273 small cell lung) | TGI (T-47D breast) | GI50 (RXF 393 renal) | GI50 (SF-295 CNS) | GI50 (NCI-H226 lung) | GI50 (KM20L2 colon) |
| --- | --- | --- | --- | --- | --- | --- | --- | --- | --- | --- | --- | --- | --- | --- | --- | --- | --- | --- | --- |
| CCNc1nc2c(=O)n(C)c(=O)n(C)c2s1 | > 100 µM | > 100 µM | > 100 µM | > 100 µM | > 100 µM | > 100 µM | > 100 µM | > 100 µM | > 100 µM | > 100 µM | > 100 µM | > 100 µM | > 100 µM |  |  |  |  |  |  |
| Cc1ccc(NCCO)cc1 |  |  | > 100 µM | > 100 µM | > 100 µM |  | > 100 µM | > 100 µM | > 100 µM | > 100 µM | > 100 µM | > 100 µM | > 100 µM |  |  |  |  |  |  |
| Nc1c2ccccc2nc2nccnc12 | > 100 µM | > 100 µM | > 100 µM | > 100 µM | > 100 µM | > 100 µM | > 100 µM | > 100 µM | > 100 µM | > 100 µM | > 100 µM | > 100 µM | > 100 µM | > 100 µM |  |  |  |  |  |
| COc1ccc(/C=C2\C(=O)Nc3ccccc32)cc1OC | > 100 µM |  | > 100 µM | > 100 µM | > 100 µM | > 100 µM | > 100 µM | > 100 µM | > 100 µM | > 100 µM | > 100 µM |  | > 100 µM | > 100 µM |  |  |  |  |  |
| CNc1cccc(-c2cc(=O)c3cc4c(cc3[nH]2)OCO4)c1 | > 100 µM | > 100 µM | > 50.8 µM | 3.66 µM | > 100 µM | > 100 µM | > 100 µM | > 22.9 µM | > 24.7 µM | 8.71 µM | > 100 µM | 0.969 µM |  | 16.9 µM | > 100 µM |  |  |  |  |
| COc1ccc(-c2cc(=O)c3cc4c(cc3[nH]2)OCO4)c(OC)c1 | > 100 µM | > 100 µM | > 100 µM | > 100 µM | 97.9 µM | > 100 µM | > 100 µM | > 100 µM | > 100 µM | > 100 µM | > 100 µM | > 100 µM | > 100 µM | > 100 µM |  | 45.4 µM | 46.2 µM | 93.5 µM | 42.7 µM |
| ClCc1nnc2n1-c1ccc(Cl)cc1SC2 | 9.79 µM | 10.4 µM | 30.3 µM | 23.8 µM | 20 µM | 13.2 µM | 18.9 µM | 15.5 µM | 15.1 µM | 5.64 µM | 14 µM |  | 15.9 µM | 13 µM |  |  |  |  |  |
| O=C(NC/C=C/CO)c1ccccc1 | > 100 µM | > 100 µM | > 100 µM | > 100 µM | > 100 µM | > 100 µM | > 100 µM | > 100 µM | > 100 µM | > 100 µM | > 100 µM | > 100 µM | > 100 µM | > 100 µM |  |  |  |  |  |
| O=C1CCN(CCC(F)(F)C(F)(F)C(F)(F)C(F)(F)F)C(=S)N1 | > 100 µM | > 100 µM | > 100 µM | > 100 µM | > 100 µM |  | > 100 µM | > 100 µM | > 100 µM | > 100 µM | > 100 µM |  | > 100 µM | > 100 µM |  |  |  |  |  |
| NCCSC1(O)C(=O)c2ccccc2-c2ccccc21 (centres undefined) | 3.01 µM |  | 2.87 µM | 2.54 µM |  |  |  | 2.28 µM | 3.33 µM | 2.99 µM | 3.34 µM |  |  |  | 2.11 µM |  |  |  |  |
| Cc1ccc2[nH]c3c(C)c4cc[n+](C)cc4c(C)c3c2c1 | 18.3 µM |  | 60.2 µM | > 82.6 µM |  | > 58.5 µM | 4.82 µM | 4.19 µM | 6.89 µM | 3.24 µM | 40.7 µM | 49.8 µM | 71.3 µM | 17.7 µM | 6.83 µM |  |  |  |  |
| COc1cc2c(OC)c3cc(C)oc(=O)c3c(O)c2c(O)c1-c1c(OC)cc2c(OC)c3cc(C)oc(=O)c3c(O)c2c1O | 35.9 µM |  | 35.9 µM | 39.4 µM |  |  |  | 39.7 µM | 40.4 µM | 38.2 µM | 42.5 µM |  |  |  | > 100 µM |  |  |  |  |
| [N-]=[N+]=NCC(=O)c1c[nH]c(=O)[nH]c1=O | > 100 µM |  | > 100 µM | > 100 µM |  |  |  | > 100 µM | > 100 µM | > 100 µM | > 100 µM |  |  |  | > 100 µM |  |  |  |  |
| CN(NC(=O)c1ccc(Cl)cc1)C1=NCCCCN1 | > 100 µM |  | > 100 µM | > 100 µM |  |  |  | > 100 µM | > 100 µM | > 100 µM | > 100 µM |  |  |  | > 100 µM |  |  |  |  |
| CCOC(=O)C(=NN(C)c1ncccc1N)C(=O)OCC | > 100 µM |  | > 100 µM | > 100 µM |  |  |  | > 100 µM | > 100 µM | 47.6 µM | > 100 µM |  |  |  | 62.7 µM |  |  |  |  |
| CCOc1ccc(-n2c(=O)c3nn4c(=O)n(-c5ccc(OCC)cc5)c(=O)c4nn3c2=O)cc1 | > 100 µM |  | > 100 µM | > 100 µM |  |  |  | > 100 µM | > 100 µM | > 100 µM | > 100 µM |  |  |  | > 100 µM |  |  |  |  |
| C/C(CC(O)(C(F)(F)Cl)C(F)(F)Cl)=N\Nc1ccccc1 | 47.6 µM |  | > 100 µM | > 100 µM |  |  |  | > 100 µM | > 100 µM | 89.1 µM | > 100 µM |  |  |  | > 100 µM |  |  |  |  |
| CC12CCC3C(CCC4(O)C=CCCC34C=O)C1(O)CC(O)C2c1ccc(=O)oc1 (centres undefined) | 0.0693 µM | 0.264 µM | 0.141 µM | 0.178 µM | 0.158 µM | 0.371 µM | 0.97 µM | 0.149 µM | 0.367 µM | 0.369 µM | 0.0716 µM | 0.098 µM | 0.267 µM | 0.0712 µM |  |  |  |  |  |
| CC1OC(n2ccc3ccc([N+](=O)[O-])cc32)C(O)C(O)C1O (centres undefined) | > 100 µM | > 100 µM | > 100 µM | > 100 µM | > 100 µM |  | > 100 µM | > 100 µM | > 100 µM | > 100 µM | > 100 µM | > 100 µM | > 100 µM | > 100 µM |  |  |  |  |  |
| Cc1ccc([N+](=O)[O-])cc1S(=O)(=O)Nc1ccc(C(=O)/C=C/c2ccccc2)cc1 | 25 µM |  | 40.7 µM | 48.7 µM |  |  |  | 44.1 µM | 32.2 µM | 98.4 µM | 37.8 µM |  |  |  | 44.6 µM |  |  |  |  |
| N#CC(NNC(=O)Cc1ccccc1)c1ccc(O)cc1 (centres undefined) | > 100 µM | > 100 µM | > 100 µM | > 100 µM |  | > 100 µM |  | > 100 µM | > 100 µM | > 100 µM | > 100 µM | > 100 µM |  | > 100 µM |  |  |  |  |  |
| Cc1cc(C)c2c(=O)cc(-c3ccccc3)[nH]c2c1 | 5.11 µM |  | 27.8 µM | > 67.1 µM |  |  |  | 17.9 µM | 22.1 µM | 48.9 µM | 31.2 µM |  |  |  | > 76.2 µM |  |  |  |  |
| CC(=O)OC12c3ccccc3C(c3ccccc31)C1C(=O)N(Nc3ccccc3)C(=O)C12 (centres undefined) | > 100 µM |  | > 100 µM | > 100 µM |  |  |  | > 100 µM | > 100 µM | > 100 µM | > 100 µM |  |  |  | > 100 µM |  |  |  |  |
| Nc1ccc(N=Nc2ccc(-c3ccc(N=Nc4c(S(=O)(=O)O)cc5cc(S(=O)(=O)O)c(N=Nc6ccc([N+](=O)[O-])cc6)c(N)c5c4O)cc3)cc2)c2cc(S(=O)(=O)O)ccc12 | > 100 µM | > 100 µM | > 100 µM | > 100 µM | > 100 µM |  | > 100 µM | > 100 µM | > 100 µM | > 100 µM | > 100 µM | > 100 µM | > 100 µM | > 100 µM |  |  |  |  |  |
| Cc1cc2c(=O)c3ccc(Cl)cc3[nH]c2c(C(=O)O)c1C | > 100 µM | > 100 µM | > 100 µM | > 100 µM | > 100 µM | > 100 µM | > 100 µM | > 100 µM | > 100 µM | > 100 µM | > 100 µM | > 100 µM | > 100 µM |  |  |  |  |  |  |
| CCOC(=O)C(=O)N=Nc1c(O)[nH]c2ccccc12 | > 100 µM |  | > 100 µM | > 100 µM |  |  |  | > 100 µM | > 100 µM | > 100 µM | > 100 µM |  |  |  | > 100 µM |  |  |  |  |
| O=C(Nn1c(-c2ccccc2)nc2ccccc2c1=O)c1ccc([N+](=O)[O-])cc1 | > 100 µM |  | > 100 µM | > 100 µM |  |  |  | > 100 µM | > 100 µM | > 100 µM | > 100 µM |  |  |  | > 100 µM |  |  |  |  |
| Cc1ccc(NC(=O)C23CC4CC(CC(C4)C2)C3)c(C(=O)NNC(=O)c2ccc(Cl)cc2)c1 | 39.8 µM |  | 37 µM | 35.7 µM |  |  |  | 66.5 µM | 90.9 µM | 62.6 µM | 69.2 µM |  |  |  | > 100 µM |  |  |  |  |
| CN1CCC2(CC1)C(=O)N(NC(N)=O)C(=O)C2c1ccccc1 (centres undefined) | > 100 µM |  | > 100 µM | > 100 µM |  |  |  | > 100 µM | > 100 µM | > 100 µM | > 100 µM |  |  |  | > 100 µM |  |  |  |  |
